Structures are written as SMILES.

Assay [1] concerns the target T1, G12D-mutant human KRAS (amino acid residues 1-188) (Homo sapiens, UniProt P01116, G12D).
T1 construct: G12D or G12C-mutant human KRAS (amino acid residues 1-188) with FLAG tag; made in house; host or cells: E. coli
The assay is described as follows: KRAS Binding Disruption Assay (AlphaScreen; biotinylated KRpep-2d analogue or RAF1-RBD), G12D. As to conditions: KRAS G12D; geometric mean; read-out: KRAS GMean IC50 (uM) MUTATION: G12D. In short, it runs like this: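 AlphaScreen readout: signal falls as compound displaces biotinylated KRpep-2d analogue or RAF1-RBD from mutant KRAS. Both partners at 5-20 nM, 1 h binding at 25° C, then 10 μg/mL Anti-Flag acceptor and streptavidin donor beads for 1 h. IC50 by nonlinear regression of % inhibition.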
On the technique in general: Bead proximity is the source of the signal in Alpha formats.

Assay [2] deals with T2, G12V-mutant human KRAS (amino acid residues 1-188) (Homo sapiens, UniProt P01116, G12V).
T2 construct: G12V-mutant human KRAS (amino acid residues 1-188) with FLAG tag was purified from E. coli; made in house; host or cells: E. coli
The assay can be described thus: KRAS Binding Competition Assay (AlphaScreen; biotinylated KRpep-2d analogue), G12V. To be noted: geometric mean, read-out: KRAS GMean IC50 (uM) MUTATION: G12V.

Regarding `CN1CCC[C@H]1COc1nc(N2C[C@H]3CC[C@@H](C2)N3)c2ccc(-c3cc(Cl)ccc3O)cc2n1` [P-0166, 2-(4-((1R,5S)-3,8-diazabicyclo[3.2.1]octan-3-yl)-2-(((S)-1-methylpyrrolidin-2-yl)methoxy)quinazolin-7-yl)-4-chlorophenol], the IC50 in assay [1] and in assay [2] was 100 to 1000 µM throughout.

For `CC(=O)Nc1ccc(F)c(-c2ccc3c(N4C[C@H]5CC[C@@H](C4)N5)nc(OC[C@@H]4CCCN4C)nc3c2)c1` [P-0167, N-(3-(4-((1R,5S)-3,8-diazabicyclo[3.2.1]octan-3-yl)-2-(((S)-1-methylpyrrolidin-2-yl)methoxy)quinazolin-7-yl)-4-fluorophenyl)acetamide], the half-inhibitory concentration (IC50) in assay [1] and in assay [2] was 100 to 1000 µM in each case.

On to `CN1CCC[C@H]1COc1nc(N2C[C@H]3CC[C@@H](C2)N3)c2ccc(-c3ccnc(N)c3)cc2n1` [P-0168, 4-(4-((1R,5S)-3,8-diazabicyclo[3.2.1]octan-3-yl)-2-(((S)-1-methylpyrrolidin-2-yl)methoxy)quinazolin-7-yl)pyridin-2-amine], for which the half-inhibitory concentration (IC50) (as a rule, the concentration at which inhibition is half-maximal) in assay [1] was in the range of 100 to 1000 µM; in assay [2], 10 to 100 µM.

In the case of `CN1CCC[C@H]1COc1nc(N2C[C@H]3CC[C@@H](C2)N3)c2ccc(-c3ccccc3O)cc2n1` [P-0169, 2-(4-((1R,5S)-3,8-diazabicyclo[3.2.1]octan-3-yl)-2-(((S)-1-methylpyrrolidin-2-yl)methoxy)quinazolin-7-yl)phenol], the 50% inhibitory concentration (IC50) in assay [1] and in assay [2] was 100 to 1000 µM throughout.

On to `CN1CCC[C@H]1COc1nc(N2CC3CCC(C2)N3)c2ccc(-c3cccc(NS(C)(=O)=O)c3)cc2n1` [P-0170, N-(3-(4-((1R,5S)-3,8-diazabicyclo[3.2.1]octan-3-yl)-2-(((S)-1-methylpyrrolidin-2-yl)methoxy)quinazolin-7-yl)phenyl)meanesulfonamide], for which the 50% inhibitory concentration (IC50) in assay [1] and in assay [2] was 100 to 1000 µM in each case.

As to `CN1CCC[C@H]1COc1nc(N2C[C@H]3CC[C@@H](C2)N3)c2ccc(-c3cccc4[nH]ncc34)cc2n1` [P-0171, 4-((1R,5S)-3,8-diazabicyclo[3.2.1]octan-3-yl)-7-(1H-indazol-4-yl)-2-(((S)-1-methylpyrrolidin-2-yl)methoxy)quinazoline], the half-maximal inhibitory concentration (IC50) in assay [1] and in assay [2] was 100 to 1000 µM in each case.

Take `Cc1n[nH]c2cccc(-c3ccc4c(N5C[C@H]6CC[C@@H](C5)N6)nc(OC[C@@H]5CCCN5C)nc4c3)c12` [P-0172, 4-((1R,5S)-3,8-diazabicyclo[3.2.1]octan-3-yl)-7-(3-methyl-1H-indazol-4-yl)-2-(((S)-1-methylpyrrolidin-2-yl)methoxy)quinazoline]: the half-maximal inhibitory concentration (IC50) in assay [1] fell in the range of 10 to 100 µM; in assay [2], 100 to 1000 µM.

Take `CN1CCC[C@H]1COc1nc(N2C[C@H]3CC[C@@H](C2)N3)c2ccc(-c3ccc4c(c3)NCCO4)cc2n1` [P-0173, 6-(4-((1R,5S)-3,8-diazabicyclo[3.2.1]octan-3-yl)-2-(((S)-1-methylpyrrolidin-2-yl)methoxy)quinazolin-7-yl)-3,4-dihydro-2H-benzo[b][1,4]oxazine]: the half-maximal inhibitory concentration (IC50) in assay [1] and in assay [2] was 10 to 100 µM each time.

Regarding `CN1CCC[C@H]1COc1nc(N2C[C@H]3CC[C@@H](C2)N3)c2ccc(-c3ccc4c(c3)NC(=O)C4)cc2n1` [P-0174, 6-(4-((1R,5S)-3,8-diazabicyclo[3.2.1]octan-3-yl)-2-(((S)-1-methylpyrrolidin-2-yl)methoxy)quinazolin-7-yl)indolin-2-one], the IC50 in assay [1] was in the range of 100 to 1000 µM; in assay [2], 10 to 100 µM.

With `CN1CCC[C@H]1COc1nc(N2C[C@H]3CC[C@@H](C2)N3)c2ccc(-c3c[nH]c4ncccc34)cc2n1` [P-0175, 4-((1R,5S)-3,8-diazabicyclo[3.2.1]octan-3-yl)-2-(((S)-1-methylpyrrolidin-2-yl)methoxy)-7-(1H-pyrrolo[2,3-b]pyridin-3-yl)quinazoline], the results for the IC50 in assay [1] and in assay [2] were 100 to 1000 µM and 10 to 100 µM, respectively.

Regarding `Cc1n[nH]c(C)c1-c1ccc2c(N3C[C@H]4CC[C@@H](C3)N4)nc(OC[C@@H]3CCCN3C)nc2c1` [P-0176, 4-((1R,5S)-3,8-diazabicyclo[3.2.1]octan-3-yl)-7-(3,5-dimethyl-1H-pyrazol-4-yl)-2-(((S)-1-methylpyrrolidin-2-yl)methoxy)quinazoline], the concentration for half-maximal inhibition (IC50) in assay [1] and in assay [2] was 100 to 1000 µM each time.

With `CN1CCC[C@H]1COc1nc(N2C[C@H]3CC[C@@H](C2)N3)c2ccc(-c3ccc(Cl)c(N)c3)cc2n1` [P-0177, 5-(4-((1R,5S)-3,8-diazabicyclo[3.2.1]octan-3-yl)-2-(((S)-1-methylpyrrolidin-2-yl)methoxy)quinazolin-7-yl)-2-chloroaniline], the IC50 in assay [1] and in assay [2] was 10 to 100 µM each time.

Regarding `CN1CCC[C@H]1COc1nc(N2C[C@H]3CC[C@@H](C2)N3)c2ccc(-c3cnn4ccccc34)cc2n1` [P-0178, 4-((1R,5S)-3,8-diazabicyclo[3.2.1]octan-3-yl)-2-(((S)-1-methylpyrrolidin-2-yl)methoxy)-7-(pyrazolo[1,5-a]pyridin-3-yl)quinazoline], the IC50 in assay [1] and in assay [2] was 100 to 1000 µM in each case.

As to `CN1CCC[C@H]1COc1nc(N2C[C@H]3CC[C@@H](C2)N3)c2ccc(-c3cc(O)cc(C(F)(F)F)c3)cc2n1` [P-0179, 3-(4-((1R,5S)-3,8-diazabicyclo[3.2.1]octan-3-yl)-2-(((S)-1-methylpyrrolidin-2-yl)methoxy)quinazolin-7-yl)-5-(trifluoromethyl)phenol], the figures for the IC50 in assay [1] and in assay [2] were 10 to 100 µM and 100 to 1000 µM, respectively.

Regarding `CN1CCC[C@H]1COc1nc(N2C[C@H]3CC[C@@H](C2)N3)c2ccc(-c3cnc(N)nc3C(F)(F)F)cc2n1` [P-0180, 5-(4-((1R,5S)-3,8-diazabicyclo[3.2.1]octan-3-yl)-2-(((S)-1-methylpyrrolidin-2-yl)methoxy)quinazolin-7-yl)-4-(trifluoromethyl)pyrimidin-2-amine], the half-maximal inhibitory concentration (IC50) in assay [1] was in the range of 10 to 100 µM; in assay [2], 100 to 1000 µM.

In the case of `CN1CCC[C@H]1COc1nc(N2C[C@H]3CC[C@@H](C2)N3)c2ccc(-c3ccc4oc(N)nc4c3)cc2n1` [P-0181, 5-(4-((1R,5S)-3,8-diazabicyclo[3.2.1]octan-3-yl)-2-(((S)-1-methylpyrrolidin-2-yl)methoxy)quinazolin-7-yl)benzo[d]oxazol-2-amine], the concentration for half-maximal inhibition (IC50) in assay [1] and in assay [2] was 10 to 100 µM throughout.

As to `CN1CCC[C@H]1COc1nc(N2C[C@H]3CC[C@@H](C2)N3)c2ccc(-c3ccc(CO)s3)cc2n1` [P-0182, (5-(4-((1R,5S)-3,8-diazabicyclo[3.2.1]octan-3-yl)-2-(((S)-1-methylpyrrolidin-2-yl)methoxy)quinazolin-7-yl)thiophen-2-yl)methanol], the IC50 in assay [1] and in assay [2] was 100 to 1000 µM each time.

In the case of `Cc1n[nH]c2cc(-c3ccc4c(N5C[C@H]6CC[C@@H](C5)N6)nc(OC[C@@H]5CCCN5C)nc4c3)ccc12` [P-0183, 4-((1R,5S)-3,8-diazabicyclo[3.2.1]octan-3-yl)-7-(3-methyl-1H-indazol-6-yl)-2-(((S)-1-methylpyrrolidin-2-yl)methoxy)quinazoline], the IC50 is 100 to 1000 µM in assay [1] and 10 to 100 µM in assay [2].

Turning to `CN1CCC[C@H]1COc1nc(N2C[C@H]3CC[C@@H](C2)N3)c2ccc(-c3c(F)ccc4[nH]ccc34)cc2n1` [P-0184, 4-((1R,5S)-3,8-diazabicyclo[3.2.1]octan-3-yl)-7-(5-fluoro-1H-indol-4-yl)-2-(((S)-1-methylpyrrolidin-2-yl)methoxy)quinazoline], the figures for the IC50 in assay [1] and in assay [2] were 10 to 100 µM and 100 to 1000 µM, respectively.

In the case of `CN1C2CCC1(COc1nc(N3C[C@H]4CC[C@@H](C3)N4)c3ccc(-c4cc(O)cc5ccccc45)cc3n1)CC2` [P-0185, 4-(4-((1R,5S)-3,8-diazabicyclo[3.2.1]octan-3-yl)-2-((7-methyl-7-azabicyclo[2.2.1]heptan-1-yl)methoxy)quinazolin-7-yl)naphthalen-2-ol], the 50% inhibitory concentration (IC50) was in the range of 0.0001 to 10 µM in assay [1] and 10 to 100 µM in assay [2].

For `CN1CCN(CCCC(=O)N2[C@@H]3CC[C@H]2CN(c2nc(OCC45CCCN4CCC5)nc4c(F)c(-c5cc(O)cc6ccccc56)ccc24)C3)CC1` [P-0187, 1-((1R,5S)-3-(8-fluoro-7-(3-hydroxynaphthalen-1-yl)-2-((tetrahydro-1H-pyrrolizin-7a(5H)-yl)methoxy)quinazolin-4-yl)-3,8-diazabicyclo[3.2.1]octan-8-yl)-4-(4-methylpiperazin-1-yl)butan-1-one], the IC50 in assay [1] and in assay [2] was 0.0001 to 10 µM throughout.

For `O=C(Cc1c[nH]cn1)N1[C@@H]2CC[C@H]1CN(c1nc(OCC34CCCN3CCC4)nc3c(F)c(-c4cc(O)cc5ccccc45)ccc13)C2` [P-0188, 1-((1R,5S)-3-(8-fluoro-7-(3-hydroxynaphthalen-1-yl)-2-((tetrahydro-1H-pyrrolizin-7a(5H)-yl)methoxy)quinazolin-4-yl)-3,8-diazabicyclo[3.2.1]octan-8-yl)-2-(1H-imidazol-4-yl)ethan-1-one], the IC50 in assay [1] and in assay [2] was 0.0001 to 10 µM throughout.

For the molecule `CN1CCC[C@H]1COc1nc(N2[C@@H]3CC[C@H]2CN(C(=O)CC2CCNCC2)C3)c2ccc(-c3cc(O)cc4ccccc34)cc2n1` [P-0189, 1-((1R,5S)-8-(7-(3-hydroxynaphthalen-1-yl)-2-(((S)-1-methylpyrrolidin-2-yl)methoxy)quinazolin-4-yl)-3,8-diazabicyclo[3.2.1]octan-3-yl)-2-(piperidin-4-yl)ethan-1-one], the concentration for half-maximal inhibition (IC50) in assay [1] and in assay [2] was 10 to 100 µM in each case.

(Values after patent publication US20230081426A1, “COMPOUNDS AND METHODS FOR KRAS MODULATION AND INDICATIONS THEREFOR” (Plexxikon Inc., priority 2020, published 2023).)
